According to article PMC8834506, “Optimization of Thymidine Kinase-Based Safety Switch for Neural Cell Therapy” (Cells, 2022):
Entries after “also recorded” stand apart in the source; their conditions may differ. Where two headings read alike, the source gives them in different places.

Tests used:
[1] = system: hESC (HS420) expressing Ki67-SR39h; test: ATP-based cell survival assay, nucleoside-induced cell death; settings: for EC50: SR39h under Ki67 promoter
non-transduced hESC = assay type: cell-based; settings: 96 h nucleoside exposure; up to 100 µM
Experimental: (§1) Cells were exposed to 100 µM of the respective nucleoside for 48 h. DNA damage was monitored using γ-H2A.X marker in yellow and nuclei were counterstained with Hoechst. The white box in the first column indicates the area of the zoom for the hESC colonies.
Plates were washed twice with DMEM-F12 (Gibco, ThermoFisher; Geneva, Switzerland), then coated with Matrigel (Corning, Lonay, Switzerland) 1/100 in DMEM-F12 and incubate 2 h at 37°. Cells were detached using Accutase and seeded at 2000 cells/well in serum-free culture medium containing 10 µM of ROCK inhibitor. At 24 h, the cell culture was continued without ROCK inhibitor. […] Drugs were prepared by serial dilution (two-fold) in 100% DMSO. At 48 h after seeding, cells were exposed to antiviral drugs for 96 h. For EC50 assays, the medium was changed daily for 4 days, then cell viability was assessed using an ATP-based assay. EC50 values for each construct were calculated using a four parameters equation (GraphPad, Prism8, San Diego, CA, USA). The same procedure was used for the cell death kinetic determinations except the treatment duration. Luminescence was measured using Spectra L384/L96 (0.2 sec exposure, Molecular devices, Biberach an der Riß, Germany).

[2] = system: non-transduced hESC colonies; test: Morphology and size of hESC colonies upon nucleoside treatment; assay type: cell-based, human
From the text: We next investigated the impact of ACV, PCV, and GCV on non-transduced hESC and neuroprogenitors (proliferating ReNcells). […] To further understand the impact of nucleoside analogs on non-transduced cells, we performed γ-H2A.X immunostaining (Figure 6B). There was a graded response, virtually identical in hESC and in neuroprogenitors. […] In addition, we investigated the morphology and size of non-transduced hESC colonies upon nucleoside treatment. […] Taken together, our findings confirm considerable toxicity of GCV, even in the absence of viral TK. Note that this was not the case for PCV despite the fact that it is a potent inducer of cell death in thymidine kinase-expressing cells.
as §1

[3] = system: Ki67-SR39h-expressing hESC transplanted into the striatum; test: In vivo prevention of tumor formation after striatal transplantation; parameters: species or system NOD/SCID mice; settings: 40 mg/kg/day i.p., 47 days post-transplantation
Experimental: (§2) Given the encouraging in vitro results, we next investigated whether this newly developed safety switch system (SR39h and different nucleoside analogs) could prevent tumor formation in vivo. For this purpose, 20,000 undifferentiated Ki67-SR39h-expressing hESC were transplanted into the striatum of NOD/SCID mice. […] A group of control mice received only a NaCl solution. […] Human cytoplasmic marker (HCM) staining confirmed the human (i.e., hESC-derived) origin of these tumors. Tumors cells were predominantly Ki67 positive with a rosette organization as frequently found in tumors of the central nervous system.
Figure 7 in vivo validation of suicide gene and inducers. (A) Schematic diagram of the experimental setup to detect tumor elimination in vivo. NOD/SCID mice were transplanted with 20,000 SR39h-expressing hESC through stereotactic injection into the striatum. 48 h post transplantation, mice were intraperitoneally injected with the respective nucleoside (40 mg/kg) for five consecutive days a week during a two-week period. Control mice were treated with a NaCl solution. Mice were sacrificed 47 days post transplantation. (B) Cresyl violet staining of a brain section. […] (C) Immunostaining of brain coronal section (sections from ACV-, PCV-, and GCV-treated mice are shown in the upper, middle, and lower row, respectively). Staining with the proliferation marker Ki67 and with the human cytoplasmic marker (HCM) are shown in red and green, respectively. Nuclei were counterstained with DAPI (blue). White arrows show residual proliferative cells form the graft. A merge of the three staining is shown in the right column. Each experimental group consisted of five mice.
Single cell transplant: Undifferentiated HS420 (expressing TK variants) were detached by TrypLE and concentrated at 20,000 cells/μL in Stemflex. 20,000 cells (1 μL) were injected into the right striatum using a 26-G Hamilton syringe (Hamilton, BGB Analytik AG, Boeckten, Switzerland). Injection coordinates for striatum were: bregma = 0.6 mm, mediolateral = 2 mm, dorsoventral = 3 mm.
Thirty days after termination of treatment with the respective antiviral nucleoside analogs or control (NaCl), mice were sacrificed by intracardiac perfusion of paraformaldehyde 4% in PBS. Brains were removed from the skull and post-fixed in the same fixative overnight.
Paraffin embedded brains were sectioned (coronal sections 7 µm thick) and processed for hematoxylin and eosin or cresyl violet staining stain aiming morphological assessment of the graft. Sections were mounted in Eukitt (Kindler GmbH, Germany) and observed under microscope (see below)
The primary antibody diluted in PBS with 0.3% Triton was incubated at 4 °C overnight in agitation. […]

[4] = assay type: in vivo, NOD/SCID mice; settings: 40 mg/kg/day i.p.; weighed daily during treatment
Experimental: as §2
Supplementary Figure S3: Mice weight
Mice were weighed daily during guanosine analogs treatment to identify differences in weight gain/loss between treated groups. No differences were observed between treatment groups.
Supplementary Figure S4: in vivo validation of suicide gene. Coronal section of NOD/SCID mice 47 days after injection of hESC expressing the SR39h thymidine kinase variant. Mice were treated for 2x5 days with the respective nucleoside analogs (see Methods). Upper lane: ACV; middle lane: PCV; lower lane: GCV. Sections were colored with cresyl violet and dark purple staining reflects a high density of nuclei. Scale bar 1000 µm. […]

host cell DNA = settings: cited from earlier work
[5] = system: sister chromatid exchange; parameters: method as in PMID 10719044; settings: at concentrations far below those impairing the proliferative activity; cited from earlier work
[6] = Homo sapiens, 96 h, read-out: EC50 (cell survival), 96 h nucleoside exposure

SMILES	Cell death induction in SR39h-expressing cells (in words) ([1]; 96 h nucleoside exposure)	EC50 [1, 6]	Toxicity in non-transduced hESC (non-transduced hESC)	Effect on morphology and size of colonies [2]	Tumor formation ([3]; five consecutive days a week for two weeks, from 2 days after transplantation, five mice per group)	Mice with a small nuclei-rich region at the graft site ([3]; cresyl violet staining)	Differences in weight among groups [4]	Fragmentation of host cell DNA (host cell DNA)	Induction of sister chromatid exchange [5]	EC50 ([1]; read-out: EC50 (cell survival), 96 h nucleoside exposure)
O=c1[nH]c(=O)n([C@H]2C[C@H](O)[C@@H](CO)O2)cc1/C=C/Br [BRVD, brivudine]	induced only very little cytotoxicity	~60000 nM	–	–	–	–	–	–	–	–
Nc1nc2c(ncn2CCC(CO)CO)c(=O)[nH]1 [PCV, penciclovir]	strong suicide inducers	2.4 nM	did not observe toxicity	did not observe an effect	prevented tumor formation; also recorded: no major tumors; also recorded: impressive anti-tumor activities	small nucleus-rich region in one of the PCV-treated mice; also recorded: one out of five	no significant differences in weight	induce fragmentation of host cell DNA	not	–
CC(=O)OCC(CCn1cnc2cnc(N)nc21)COC(C)=O [FAM, famciclovir]	did not show any toxic effects; also recorded: did not show any activity	> 100000 nM	–	–	–	–	–	–	–	–
Nc1nc2c(ncn2COCCO)c(=O)[nH]1 [ACV, acyclovir]	induced only very little cytotoxicity	2900 nM	–	did not observe an effect	–	–	no significant differences in weight	no fragmentation of host cell DNA	–	–
CC(C)[C@H](N)C(=O)OCC(CO)OCn1cnc2c(=O)nc(N)[nH]c21 (stereo partly drawn) [Val-GCV, valganciclovir]	relatively weak, but clearly discernible activity	31 nM	–	–	–	–	–	–	–	32 nM
